US9193722B2, “Tri-cyclic pyrazolopyridine kinase inhibitors” (Vertex Pharmaceuticals Incorporated, priority 2008, dated 2015)

Key:
Assay type in all cases: biochemical
PKC theta kinase = PKC theta kinase (Homo sapiens, UniProt Q04759); test: PKC theta kinase inhibition, coupled-enzyme (NADH absorbance) assay, Ki; details: 240 μM ATP, 18 nM PKC theta kinase, 30° C.
Procedure, shortened: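 Coupled-enzyme kinase assay following NADH absorbance at 340 nm, in 100 mM HEPES pH 7.5, 10 mM MgCl2, 25 mM NaCl, 0.1 mM EDTA, 0.01% Brij. Compound in DMSO preincubated with enzyme 10 min at 30 °C. Ki from initial rates by non-linear regression.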

PKC delta kinase = PKC delta kinase (Homo sapiens, UniProt Q05655); test: PKC delta kinase inhibition, coupled-enzyme (NADH absorbance) assay, Ki; details: 150 μM ATP, 46 nM PKC delta kinase, 30° C.; read-out: Ki PKC delta
Procedure, shortened: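 PKC delta in 100 mM HEPES pH 7.5, 10 mM MgCl2, 25 mM NaCl, 0.1 mM EDTA, 0.01% Brij, equilibrated 10 min at 30° C with compound from DMSO stock. Started with ATP at 150 μM final; NADH-coupled absorbance at 340 nm followed 15 min at 30° C. Ki from initial rates by non-linear regression.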

PKC alpha kinase = PKC alpha kinase (Homo sapiens, UniProt P17252); test: PKC alpha kinase inhibition, coupled-enzyme (NADH absorbance) assay, Ki; details: 130 μM ATP, 4.5 nM PKC alpha kinase, 30° C.
Procedure, shortened: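 Enzyme in 100 mM HEPES pH 7.5, 10 mM MgCl2, 100 μM CaCl2, 0.01% Brij, preincubated with compound 10 min at 30 °C. Reaction started with 130 μM ATP (final); NADH consumption followed at 340 nm for 15 min at 30 °C. Ki fitted by non-linear regression of initial rates.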

Chain of PKC delta kinase (Q05655 whole entry): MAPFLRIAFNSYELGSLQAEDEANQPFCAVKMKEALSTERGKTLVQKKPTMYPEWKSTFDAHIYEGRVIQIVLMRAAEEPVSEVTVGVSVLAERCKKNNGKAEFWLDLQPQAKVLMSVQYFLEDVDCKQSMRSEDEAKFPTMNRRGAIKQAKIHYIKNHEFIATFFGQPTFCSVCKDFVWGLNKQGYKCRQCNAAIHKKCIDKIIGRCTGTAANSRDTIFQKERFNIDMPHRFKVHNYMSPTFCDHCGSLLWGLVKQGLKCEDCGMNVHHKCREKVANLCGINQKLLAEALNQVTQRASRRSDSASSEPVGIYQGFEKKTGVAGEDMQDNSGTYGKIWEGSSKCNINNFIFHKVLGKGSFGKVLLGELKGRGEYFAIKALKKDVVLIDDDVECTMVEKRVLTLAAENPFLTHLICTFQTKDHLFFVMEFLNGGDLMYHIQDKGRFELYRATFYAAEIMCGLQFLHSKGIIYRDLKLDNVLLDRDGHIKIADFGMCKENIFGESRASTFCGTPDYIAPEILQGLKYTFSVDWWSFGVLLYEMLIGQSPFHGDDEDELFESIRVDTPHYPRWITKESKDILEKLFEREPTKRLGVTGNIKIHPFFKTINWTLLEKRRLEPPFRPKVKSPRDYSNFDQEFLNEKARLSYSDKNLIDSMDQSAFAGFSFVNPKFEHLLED
Chain of PKC theta kinase (Q04759 whole entry): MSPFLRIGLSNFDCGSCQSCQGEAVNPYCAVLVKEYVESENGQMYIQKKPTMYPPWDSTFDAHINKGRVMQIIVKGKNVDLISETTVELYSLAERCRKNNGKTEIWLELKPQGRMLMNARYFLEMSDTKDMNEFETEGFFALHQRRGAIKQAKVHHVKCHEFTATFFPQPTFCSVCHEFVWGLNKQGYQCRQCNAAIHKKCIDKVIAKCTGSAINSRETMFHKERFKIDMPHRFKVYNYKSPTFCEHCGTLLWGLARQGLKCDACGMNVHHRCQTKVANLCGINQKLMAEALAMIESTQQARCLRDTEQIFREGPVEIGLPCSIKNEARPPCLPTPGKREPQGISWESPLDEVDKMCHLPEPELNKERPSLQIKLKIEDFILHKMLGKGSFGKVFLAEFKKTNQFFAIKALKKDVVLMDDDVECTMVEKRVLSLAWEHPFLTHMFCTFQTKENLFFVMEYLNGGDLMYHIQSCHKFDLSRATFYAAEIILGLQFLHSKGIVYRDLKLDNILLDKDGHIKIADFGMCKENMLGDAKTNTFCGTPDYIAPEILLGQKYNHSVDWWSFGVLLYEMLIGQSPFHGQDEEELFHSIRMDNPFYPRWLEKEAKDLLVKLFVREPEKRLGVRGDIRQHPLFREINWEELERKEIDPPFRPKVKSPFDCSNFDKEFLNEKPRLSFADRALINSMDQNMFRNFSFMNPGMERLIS

| Structure (SMILES) | Ki (PKC theta kinase) | Ki (PKC delta kinase) | Ki (PKC alpha kinase) |
| --- | --- | --- | --- |
| CC(C)(F)C(C)(O)C1CN(c2ccc(F)c(-c3n[nH]c4ncccc34)n2)CCN1 (stereo not drawn) [Compound 249] | < 50 nM | > 1250 nM | > 1250 nM |
| Fc1cnc2[nH]nc(-c3nc(N4CCNCC4)ccc3C(F)(F)F)c2c1 [Compound 45] | < 500 nM | > 2000 nM | > 1250 nM |
| CC(=O)N1CCN(c2cccc(-c3n[nH]c4ncccc34)n2)CC1 [Compound 20] | > 700 nM | > 2000 nM | > 1250 nM |
| CC(C)C[C@H]1CN(c2cc(C(F)(F)F)cc(-c3n[nH]c4ncccc34)n2)CCN1 [Compound 57] | < 500 nM | > 2000 nM | > 1250 nM |
| CC(C)CC1(CN)CN(c2ccc(F)c(-c3n[nH]c4ncccc34)n2)C1 [Compound 457] | > 700 nM | > 1250 nM | > 1250 nM |
| FC(F)(F)c1ccc(N2CCC(N3CCCCC3)CC2)nc1-c1n[nH]c2ncccc12 [Compound 320] | > 700 nM | > 1250 nM | > 1250 nM |
| CC1(N)CCCN(c2ccc(F)c(-c3n[nH]c4ncccc34)n2)C1 (stereo not drawn) [Compound 316] | < 500 nM | > 1250 nM | > 1250 nM |
| CC(C)(C)C[C@H]1CN(c2ccc(Cl)c(-c3n[nH]c4ncccc34)n2)CCN1 [Compound 141] | < 50 nM | < 500 nM | < 2800 nM |
| CC(F)(F)CC1CN(c2cccc(-c3n[nH]c4ncccc34)n2)CCN1 (stereo not drawn) [Compound 54] | < 50 nM | < 500 nM | < 2800 nM |
| FC(F)(F)c1ccc(N2CCCNCC2)nc1-c1n[nH]c2ncccc12 [Compound 97] | < 500 nM | > 2000 nM | > 1250 nM |
| CCC1(CN)CN(c2ccc(C(F)(F)F)c(-c3n[nH]c4ncccc34)n2)CCO1 (stereo not drawn) [Compound 403] | < 50 nM | < 500 nM | > 1250 nM |
| CC(C)CC1CN(c2ccc(F)c(-c3n[nH]c4ncccc34)n2)CCC1CN (stereo not drawn) [Compound 386] | < 50 nM | < 500 nM | < 2800 nM |
| CC(C)(C)C(N)C1CCCN(c2ccc(F)c(-c3n[nH]c4ncccc34)n2)C1 (stereo not drawn) [Compound 308] | < 50 nM | < 2800 nM | > 1250 nM |
| CC(C)CC1(CN)CCCN(c2ccc(F)c(-c3n[nH]c4ncccc34)n2)C1 (stereo not drawn) [Compound 351] | < 50 nM | < 2800 nM | > 1250 nM |
| CS(=O)(=O)NCC1CCCN(c2ccc(C(F)(F)F)c(-c3n[nH]c4ncccc34)n2)C1 (stereo not drawn) [Compound 372] | > 700 nM | > 1250 nM | > 1250 nM |
| CC(C)C(C)(O)C1CN(c2ccc(Cl)c(-c3n[nH]c4ncccc34)n2)CCN1 (stereo not drawn) [Compound 437] | < 50 nM | < 2800 nM | > 1250 nM |
| NC1CCN(c2ccc(C(F)(F)F)c(-c3n[nH]c4ncccc34)n2)C1 (stereo not drawn) [Compound 125] | < 2800 nM | > 1250 nM | > 1250 nM |
| CC(C)(C)C(N)C1CCCN(c2ccc(F)c(-c3n[nH]c4ncccc34)n2)C1 (stereo not drawn) [Compound 307] | < 1 nM | < 50 nM | < 500 nM |
| CCC(C)(O)C1CN(c2cccc(-c3n[nH]c4ncccc34)n2)CCN1 (stereo not drawn) [Compound 160] | < 50 nM | < 500 nM | < 2800 nM |
| CC(C)(C(N)C1CCCN(c2ccc(F)c(-c3n[nH]c4ncccc34)n2)C1)C(F)(F)F (stereo not drawn) [Compound 390] | < 50 nM | > 1250 nM | > 1250 nM |
| CC(C)C[C@H]1CN(c2ccc(C(F)(F)F)c(-c3n[nH]c4ncccc34)n2)CC[C@H]1N [Compound 84] | < 50 nM | < 500 nM | < 2800 nM |
| NC1CCN(c2cc(C(F)(F)F)cc(-c3n[nH]c4ncccc34)n2)CC1 [Compound 108] | < 500 nM | < 2800 nM | > 1250 nM |
| CC1(N)CCCN(c2ccc(C(F)(F)F)c(-c3n[nH]c4ncccc34)n2)C1 (stereo not drawn) [Compound 319] | > 700 nM | > 1250 nM | > 1250 nM |
| NCC1CCN(c2ccc(C(F)(F)F)c(-c3n[nH]c4ncccc34)n2)CC1 [Compound 127] | > 700 nM | > 1250 nM | > 1250 nM |
| CC(C)C(C)(O)C1CN(c2nc(-c3n[nH]c4ncccc34)ccc2F)CCN1 (stereo not drawn) [Compound 376] | < 50 nM | < 500 nM | > 1250 nM |

| Structure (SMILES) | Ki (PKC theta kinase) | Ki (PKC delta kinase) | Ki (PKC alpha kinase) |
| --- | --- | --- | --- |
| O=C1CNCCN1c1cccc(-c2n[nH]c3ncccc23)n1 [Compound 166] | > 700 nM | > 1250 nM | > 1250 nM |
| CC(C)C[C@H]1CN(c2cncc(-c3n[nH]c4ncccc34)n2)CCN1 [Compound 39, (S)-3-(6-(3-isobutylpiperazin-1-yl)pyrazin-2-yl)-1H-pyrazolo[3,4-b]pyridine] | < 50 nM | < 500 nM | < 2800 nM |
| CC(F)(F)C(C)(O)C1CN(c2ccc(F)c(-c3n[nH]c4ncccc34)n2)CCN1 (stereo not drawn) [Compound 287] | < 1 nM | < 10 nM | < 2800 nM |
| OCCC1CCCCN1c1ccc(C(F)(F)F)c(-c2n[nH]c3ncccc23)n1 (stereo not drawn) [Compound 257] | > 700 nM | > 1250 nM | > 1250 nM |
| CC(C)C[C@H]1CN(c2cccc(-c3n[nH]c4ncccc34)n2)CC(F)(F)CN1 [Compound 225] | < 500 nM | > 1250 nM | > 1250 nM |
| CC(C)C(O)(CF)C1CN(c2ccc(F)c(-c3n[nH]c4ncccc34)n2)CCN1 (stereo not drawn) [Compound 264] | < 50 nM | < 500 nM | > 1250 nM |
| CC(C)CC1CN(c2cc(C(F)(F)F)cc(-c3n[nH]c4ncccc34)n2)CCC1N (stereo not drawn) [Compound 419] | < 500 nM | > 1250 nM | > 1250 nM |
| Cc1ccc(-c2n[nH]c3ncccc23)nc1N1CCN[C@@H](CC(C)C)C1 [Compound 40] | < 500 nM | < 2800 nM | > 1250 nM |
| CCC(C)(O)C1CN(c2ccc(F)c(-c3n[nH]c4ncccc34)n2)CCN1 (stereo not drawn) [Compound 242] | < 50 nM | < 500 nM | > 1250 nM |
| FC(F)(F)c1ccc(N2CCN[C@@H](c3ccccc3)C2)nc1-c1n[nH]c2ncccc12 [Compound 129] | < 50 nM | < 2800 nM | < 2800 nM |
| COc1cccc(C2CN(c3cccc(-c4n[nH]c5ncccc45)n3)CCN2)c1 (stereo not drawn) [Compound 35] | < 500 nM | > 2000 nM | < 500 nM |
| CC1(C)CC1(O)C1CN(c2ccc(F)c(-c3n[nH]c4ncccc34)n2)CCN1 (stereo not drawn) [Compound 382] | < 500 nM | > 1250 nM | > 1250 nM |
| FC(F)(F)c1ccc(N2CCNC(c3cccc(Br)c3)C2)nc1-c1n[nH]c2ncccc12 (stereo not drawn) [Compound 172] | < 500 nM | > 1250 nM | < 2800 nM |
| CC(C)(F)C(N)C1CCCN(c2ccc(F)c(-c3n[nH]c4ncccc34)n2)C1 (stereo not drawn) [Compound 345] | < 50 nM | < 500 nM | > 1250 nM |
| OCc1cc(-c2n[nH]c3ncccc23)nc(N2CCNCC2)c1 [Compound 443] | < 500 nM | < 2800 nM | > 1250 nM |
| CC(C)(C)[C@H]1CN(c2ccc(Cl)c(-c3n[nH]c4ncccc34)n2)CCN1 [Compound 78] | < 500 nM | < 2800 nM | > 1250 nM |
| CC(C)(F)C(C)(O)C1CN(c2ccc(F)c(-c3n[nH]c4ncccc34)n2)CCN1 (stereo not drawn) [Compound 250] | < 50 nM | < 500 nM | > 1250 nM |
| CC(C)C[C@@H]1C[C@H](N)CN(c2ccc(F)c(-c3n[nH]c4ncccc34)n2)C1 [Compound 366] | < 50 nM | < 2800 nM | > 1250 nM |
| CC(C)C[C@@]1(O)CN(c2ccc(F)c(-c3n[nH]c4ncccc34)n2)CC[C@@H]1N [Compound 269] | < 50 nM | < 500 nM | < 500 nM |
| CC(F)(F)C(C)(O)C1CN(c2ccc(F)c(-c3n[nH]c4ncccc34)n2)CCN1 (stereo not drawn) [Compound 246] | < 50 nM | < 500 nM | > 1250 nM |
| CC(C)(N)C1CCCN(c2ccc(F)c(-c3n[nH]c4ncccc34)n2)C1 (stereo not drawn) [Compound 310] | < 500 nM | < 500 nM | < 2800 nM |
| OC1(C2CN(c3ccc(F)c(-c4n[nH]c5ncccc45)n3)CCN2)COC1 (stereo not drawn) [Compound 230] | < 50 nM | > 1250 nM | > 1250 nM |
| FC(F)(F)c1ccc(N2CC3CCC(C2)N3)nc1-c1n[nH]c2ncccc12 [Compound 120] | < 500 nM | < 2800 nM | > 1250 nM |
| CC(C)CC1(C#N)CCN(c2ccc(C(F)(F)F)c(-c3n[nH]c4ncccc34)n2)CC1 [Compound 446] | > 700 nM | > 1250 nM | > 1250 nM |
